Experimental data published in ChEMBL document CHEMBL1201862, “PubChem BioAssay data set” (2004).
Calls of active or inactive are those of the source.

Tests used:
[1] = viability loss in HeLa cells – cytotoxicity control for MgcRacGAP inhibitor project, dose response (AID 624300); format: functional
[2] = molecular target: T1, Rac GTPase-activating protein 1 (Homo sapiens, UniProt Q9H0H5); assay: blockers of MgcRacGAP-driven Rac1 GTP hydrolysis – biochemical, ADP Hunter fluorescence, primary and confirmatory, confirmation (AID 624330); format: functional
T1 sequence (Q9H0H5 whole entry): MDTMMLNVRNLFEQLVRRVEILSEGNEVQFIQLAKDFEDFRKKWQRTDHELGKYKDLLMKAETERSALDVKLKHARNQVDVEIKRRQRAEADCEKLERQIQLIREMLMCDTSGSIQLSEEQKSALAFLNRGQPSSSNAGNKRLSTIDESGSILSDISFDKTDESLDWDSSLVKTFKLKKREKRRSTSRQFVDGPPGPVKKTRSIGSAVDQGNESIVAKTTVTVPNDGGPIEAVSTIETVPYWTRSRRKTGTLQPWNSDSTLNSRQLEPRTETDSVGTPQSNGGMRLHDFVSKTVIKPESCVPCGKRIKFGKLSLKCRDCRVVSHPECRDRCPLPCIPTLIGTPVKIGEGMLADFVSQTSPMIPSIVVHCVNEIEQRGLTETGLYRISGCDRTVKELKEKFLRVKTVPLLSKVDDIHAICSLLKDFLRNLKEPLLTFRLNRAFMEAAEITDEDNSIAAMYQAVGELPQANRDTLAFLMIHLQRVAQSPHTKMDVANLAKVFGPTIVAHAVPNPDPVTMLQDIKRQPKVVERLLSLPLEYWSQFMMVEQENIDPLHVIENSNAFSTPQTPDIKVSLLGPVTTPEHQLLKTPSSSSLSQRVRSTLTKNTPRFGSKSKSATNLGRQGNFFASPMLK

[3] = molecular target: T2, DNA repair and recombination protein RAD54-like (Homo sapiens, UniProt Q92698); assay: RAD54 Holliday junction migration blockers – biochemical, fluorescence, cherry-picked samples, dose series, confirmation (AID 651657); format: functional
T2 sequence (Q92698 whole entry): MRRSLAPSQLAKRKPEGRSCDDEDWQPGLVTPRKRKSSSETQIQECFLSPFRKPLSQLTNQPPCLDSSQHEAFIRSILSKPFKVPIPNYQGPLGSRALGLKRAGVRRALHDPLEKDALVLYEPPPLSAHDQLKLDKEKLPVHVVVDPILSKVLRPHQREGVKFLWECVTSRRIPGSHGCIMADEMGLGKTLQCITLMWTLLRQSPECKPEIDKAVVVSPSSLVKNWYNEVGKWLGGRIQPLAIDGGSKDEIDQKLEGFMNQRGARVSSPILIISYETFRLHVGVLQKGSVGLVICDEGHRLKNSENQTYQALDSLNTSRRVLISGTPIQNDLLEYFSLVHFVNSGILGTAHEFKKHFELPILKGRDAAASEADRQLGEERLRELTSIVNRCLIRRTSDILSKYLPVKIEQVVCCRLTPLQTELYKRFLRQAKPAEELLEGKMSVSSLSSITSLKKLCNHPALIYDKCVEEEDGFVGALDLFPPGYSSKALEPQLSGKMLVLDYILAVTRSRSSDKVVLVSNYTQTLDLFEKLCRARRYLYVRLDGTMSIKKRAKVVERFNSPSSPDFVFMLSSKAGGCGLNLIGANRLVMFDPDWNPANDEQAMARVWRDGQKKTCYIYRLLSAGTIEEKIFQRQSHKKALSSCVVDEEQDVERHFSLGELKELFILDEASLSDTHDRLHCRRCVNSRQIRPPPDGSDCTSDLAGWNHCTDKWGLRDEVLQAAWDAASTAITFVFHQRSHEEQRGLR

[4] = molecular target: T3, DNA repair protein RAD52 homolog (Homo sapiens, UniProt P43351); format: functional, biochemical
T3 sequence (P43351 whole entry): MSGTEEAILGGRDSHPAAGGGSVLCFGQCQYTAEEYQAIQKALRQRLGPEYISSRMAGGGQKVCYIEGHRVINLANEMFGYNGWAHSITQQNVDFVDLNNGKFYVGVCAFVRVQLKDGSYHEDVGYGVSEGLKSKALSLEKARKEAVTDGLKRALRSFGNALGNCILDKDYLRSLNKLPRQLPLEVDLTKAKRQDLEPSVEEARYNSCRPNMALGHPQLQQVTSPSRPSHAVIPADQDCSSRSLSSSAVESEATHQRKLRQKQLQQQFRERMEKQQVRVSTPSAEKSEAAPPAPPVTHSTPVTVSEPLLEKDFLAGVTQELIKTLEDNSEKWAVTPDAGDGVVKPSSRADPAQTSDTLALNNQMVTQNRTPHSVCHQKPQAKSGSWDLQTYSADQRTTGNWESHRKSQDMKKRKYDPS

[5] = NIH3T3 cell viability loss – ATP luminescence, mouse fibroblasts, counter-screen, dose response (AID 2010); format: functional, cell-based;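 also: cells exposed to compound for about 90 hours before reading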
Protein skinhead-1 = molecular target: T4, Protein skinhead-1 (Caenorhabditis elegans, UniProt P34707); format: functional
T4 sequence (P34707 whole entry): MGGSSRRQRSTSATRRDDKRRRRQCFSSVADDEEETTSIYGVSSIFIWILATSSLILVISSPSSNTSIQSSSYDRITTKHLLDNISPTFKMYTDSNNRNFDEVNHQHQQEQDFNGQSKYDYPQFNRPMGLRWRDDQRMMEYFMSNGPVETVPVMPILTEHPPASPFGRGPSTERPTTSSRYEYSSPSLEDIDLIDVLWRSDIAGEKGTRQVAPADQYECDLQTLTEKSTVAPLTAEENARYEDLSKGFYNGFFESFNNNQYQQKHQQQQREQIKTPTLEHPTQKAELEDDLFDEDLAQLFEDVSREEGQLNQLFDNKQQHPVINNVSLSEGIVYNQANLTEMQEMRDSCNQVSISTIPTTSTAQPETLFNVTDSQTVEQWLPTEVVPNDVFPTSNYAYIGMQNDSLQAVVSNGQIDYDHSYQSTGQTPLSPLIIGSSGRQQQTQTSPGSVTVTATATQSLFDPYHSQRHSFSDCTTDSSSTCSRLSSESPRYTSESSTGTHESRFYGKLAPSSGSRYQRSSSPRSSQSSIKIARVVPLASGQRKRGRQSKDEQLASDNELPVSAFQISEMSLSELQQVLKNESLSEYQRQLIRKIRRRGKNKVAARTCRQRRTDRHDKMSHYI

[6] = Trypanosoma cruzi growth suppression in host cells – NIH3T3 host cells, beta-gal luminescence, confirmation (AID 2044); format: functional, cell-based;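 also: intracellular parasites grown in NIH/3T3 mouse fibroblasts as host cells; luminescent beta-galactosidase reporter signal from transgenic T. cruzi replicating inside host cells; inhibitors lower the luminescence signal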
[7] = molecular target: T5, High affinity choline transporter 1 (Homo sapiens, UniProt Q9GZV3); assay: human choline transporter blockers, potency – cell-based, 5-point CRC, membrane potential dye, dose response (AID 504840); format: functional
T5 sequence (Q9GZV3 whole entry): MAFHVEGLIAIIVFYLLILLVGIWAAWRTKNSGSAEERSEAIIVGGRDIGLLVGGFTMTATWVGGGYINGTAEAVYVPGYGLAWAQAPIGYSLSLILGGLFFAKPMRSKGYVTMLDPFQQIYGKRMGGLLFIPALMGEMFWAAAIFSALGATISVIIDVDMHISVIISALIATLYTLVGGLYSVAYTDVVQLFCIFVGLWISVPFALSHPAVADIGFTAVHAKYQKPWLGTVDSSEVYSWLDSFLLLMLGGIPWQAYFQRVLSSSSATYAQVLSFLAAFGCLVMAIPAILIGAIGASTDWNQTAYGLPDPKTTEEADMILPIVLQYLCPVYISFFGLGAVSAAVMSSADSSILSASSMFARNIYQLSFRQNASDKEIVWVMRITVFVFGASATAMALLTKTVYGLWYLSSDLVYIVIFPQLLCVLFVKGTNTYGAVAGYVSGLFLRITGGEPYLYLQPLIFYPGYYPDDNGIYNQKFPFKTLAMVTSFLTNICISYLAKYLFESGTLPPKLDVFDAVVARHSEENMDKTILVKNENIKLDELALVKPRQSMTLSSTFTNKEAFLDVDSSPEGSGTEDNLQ

cells [8] = format: functional, cell-based
cells [9] = format: functional, cell-based; remark: listed apart in the source
INS1 = assay: INS-1E survival protection against cytokine death – cell-based, luminescence, retest, dose response (AID 449756); format: functional; conditions: Rattus norvegicus;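 also: cell death triggered by IL-1 beta plus TNF-alpha plus IFN-gamma mixture; protective hits raise ATP signal compared with cytokine alone wells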
[10] = molecular target: T6, Short transient receptor potential channel 4 (Mus musculus, UniProt Q9QUQ5); assay: block of DAMGO-driven TRPC4 calcium entry – cell-based, HEK293 TRPC4/mu-opioid, Fluo-4 calcium, dose response (AID 434942); format: functional;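 also: potency of inhibitors blocking the TRPC4 calcium response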
T6 sequence (Q9QUQ5 whole entry): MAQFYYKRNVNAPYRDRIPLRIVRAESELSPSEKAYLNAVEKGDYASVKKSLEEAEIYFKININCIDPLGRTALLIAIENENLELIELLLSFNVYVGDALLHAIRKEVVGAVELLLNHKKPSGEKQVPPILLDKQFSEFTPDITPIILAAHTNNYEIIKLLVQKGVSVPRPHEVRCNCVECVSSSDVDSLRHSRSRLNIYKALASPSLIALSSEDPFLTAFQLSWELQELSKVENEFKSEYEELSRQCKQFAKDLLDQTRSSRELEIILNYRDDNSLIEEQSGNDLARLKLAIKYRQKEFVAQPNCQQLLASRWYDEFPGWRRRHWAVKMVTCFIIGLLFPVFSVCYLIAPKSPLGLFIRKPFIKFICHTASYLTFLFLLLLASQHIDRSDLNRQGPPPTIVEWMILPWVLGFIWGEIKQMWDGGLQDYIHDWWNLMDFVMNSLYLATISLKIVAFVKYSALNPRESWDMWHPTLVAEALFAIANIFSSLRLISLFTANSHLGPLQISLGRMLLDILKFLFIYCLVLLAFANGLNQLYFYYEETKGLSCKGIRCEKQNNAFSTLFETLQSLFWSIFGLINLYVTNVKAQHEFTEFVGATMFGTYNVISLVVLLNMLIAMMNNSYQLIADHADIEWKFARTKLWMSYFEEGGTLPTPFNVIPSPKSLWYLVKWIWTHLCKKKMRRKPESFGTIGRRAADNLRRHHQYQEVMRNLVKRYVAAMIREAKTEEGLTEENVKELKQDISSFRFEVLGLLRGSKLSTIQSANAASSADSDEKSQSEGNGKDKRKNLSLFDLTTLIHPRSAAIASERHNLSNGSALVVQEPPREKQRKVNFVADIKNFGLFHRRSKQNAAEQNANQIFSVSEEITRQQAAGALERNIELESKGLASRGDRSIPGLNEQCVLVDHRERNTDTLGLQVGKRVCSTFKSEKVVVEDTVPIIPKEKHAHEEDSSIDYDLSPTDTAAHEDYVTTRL

[11] = Fluorescence-based cell-based high throughput dose response assay for inhibitors of the interaction of nucleotide-binding oligomerization domain containing 2 (NOD2) and the receptor-interacting serine-threonine kinase 2 (RIPK2).; format: functional; conditions: Homo sapiens
[12] = microbe, parasite or virus in culture; format: functional; conditions: Mycobacterium tuberculosis
[13] = Luminescence Cell-Based Dose Retest to Confirm Inhibitors of Cancer Stem Cells. [Related pubchem assays (depositor defined):AID2717, AID2721]; format: functional; conditions: Homo sapiens
Paired box protein Pax-8 = Paired box protein Pax-8 (Homo sapiens, UniProt Q06710); assay: PAX8 transcriptional activity inhibition in RMG-I – RMG-I cells, luciferase, cherry-pick, dose response (AID 687027); format: functional, cell-based;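 also: luciferase reporter driven by Pax8 target thyroperoxidase promoter measured by SteadyGlo luminescence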
[14] = molecular target: Glucose-6-phosphate 1-dehydrogenase (Homo sapiens, UniProt P11413); assay: inhibition of Homo sapiens G6PD, dose series – biochemical, fluorescence, selectivity assay for P. falciparum G6PD inhibitor project, dose response (AID 504792); format: functional
Hexokinase = molecular target: T7, Hexokinase (Trypanosoma brucei, UniProt Q38C41); assay: Confirmation assay for inhibitors of Trypanosoma brucei hexokinase 1-Analogue-first series. [Related pubchem assays (depositor defined):AID1430, AID1632, AID2516, AID2560, AID2579, AID2600, AID449725, AID492951]; format: functional
T7 sequence (Q38C41 whole entry): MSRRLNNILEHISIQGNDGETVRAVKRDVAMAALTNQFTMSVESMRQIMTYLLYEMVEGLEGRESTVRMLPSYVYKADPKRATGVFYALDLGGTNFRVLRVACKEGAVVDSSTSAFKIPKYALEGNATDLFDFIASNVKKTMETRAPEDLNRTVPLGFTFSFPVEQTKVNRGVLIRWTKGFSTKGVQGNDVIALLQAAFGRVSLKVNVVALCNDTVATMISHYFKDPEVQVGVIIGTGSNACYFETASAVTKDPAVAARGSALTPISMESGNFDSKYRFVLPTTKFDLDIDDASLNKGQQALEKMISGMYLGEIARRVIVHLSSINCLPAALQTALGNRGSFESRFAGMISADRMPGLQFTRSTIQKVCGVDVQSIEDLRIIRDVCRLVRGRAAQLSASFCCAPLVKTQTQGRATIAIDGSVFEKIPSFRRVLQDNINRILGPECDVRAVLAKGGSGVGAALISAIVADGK

Sequence of Paired box protein Pax-8 (Q06710 whole entry): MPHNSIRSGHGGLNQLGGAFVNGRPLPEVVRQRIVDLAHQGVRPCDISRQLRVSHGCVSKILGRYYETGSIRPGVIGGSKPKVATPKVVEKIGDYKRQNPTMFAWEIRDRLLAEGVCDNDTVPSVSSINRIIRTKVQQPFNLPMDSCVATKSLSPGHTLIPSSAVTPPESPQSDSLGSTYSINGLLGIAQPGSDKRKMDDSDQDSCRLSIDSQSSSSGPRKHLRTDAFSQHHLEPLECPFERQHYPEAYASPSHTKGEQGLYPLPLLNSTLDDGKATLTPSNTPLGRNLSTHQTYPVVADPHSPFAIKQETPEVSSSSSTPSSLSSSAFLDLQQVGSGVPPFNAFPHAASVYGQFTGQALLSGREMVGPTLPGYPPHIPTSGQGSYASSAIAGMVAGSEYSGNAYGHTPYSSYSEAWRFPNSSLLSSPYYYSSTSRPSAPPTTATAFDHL
Sequence of Glucose-6-phosphate 1-dehydrogenase (P11413 whole entry): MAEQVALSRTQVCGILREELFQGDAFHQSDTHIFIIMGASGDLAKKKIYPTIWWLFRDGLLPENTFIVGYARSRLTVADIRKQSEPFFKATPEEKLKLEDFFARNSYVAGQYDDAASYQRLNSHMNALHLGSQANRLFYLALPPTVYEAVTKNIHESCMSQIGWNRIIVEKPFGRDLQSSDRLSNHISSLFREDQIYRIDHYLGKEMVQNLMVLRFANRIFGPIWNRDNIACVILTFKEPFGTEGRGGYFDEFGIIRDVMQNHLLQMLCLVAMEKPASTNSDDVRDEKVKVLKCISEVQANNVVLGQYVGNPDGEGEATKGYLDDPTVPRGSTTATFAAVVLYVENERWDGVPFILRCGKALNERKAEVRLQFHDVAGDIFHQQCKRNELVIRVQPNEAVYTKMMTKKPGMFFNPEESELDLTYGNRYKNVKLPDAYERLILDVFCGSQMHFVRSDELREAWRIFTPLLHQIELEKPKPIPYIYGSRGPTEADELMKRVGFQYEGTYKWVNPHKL

Compound | CC50 [1] | IC50 [2] | AC50 [3] | AC50 [4] | EC50 [5] | EC50 [6] | other results
Cc1cc(-c2ccccc2)nc(N/N=C/c2ccc(N(C)C)cc2)n1 | 100 µM (active) | 74.7 µM (active) | – | – | – | – | –
CCN1CCN(c2cc(C)c3cc(NC(=S)N4CCCCC4)ccc3n2)CC1 | – | – | 100 µM (inactive) | 14.1 µM (active) | > 60 µM (not active) | 2.28 µM (active) | IC50 (Protein skinhead-1): > 100 µM (inactive); IC50 [7]: 12.6 µM (active)
c1ccc(CNc2c3ccccc3nc3ccccc23)cc1 | – | – | 5.21 µM (active) | 12.1 µM (active) | 8.87 µM (active) | 0.931 µM (active) | EC50 (cells [8]): > 350 µM (not active); EC50 (cells [9]): > 350 µM (not active); AC50 (INS1): 3.79 µM (active); EC50 [10]: 1.33 µM (active)
CN1CCN(c2ccc(S(=O)(=O)N3CCCCC3)cc2NC(=O)/C=C/c2ccc(Cl)c([N+](=O)[O-])c2)CC1 | – | – | – | – | > 60 µM (not active) | 1.85 µM (active) | IC50 [11]: 6.18 µM (active); CC50 [12]: 23.3 µM (active); AC50 [13]: 5.48 µM (active); AC50 (Paired box protein Pax-8): 12.6 µM (active)
O=c1c2ccccc2sn1-c1ccccc1F | 72.2 µM (active) | 41 µM (active) | – | – | – | – | IC50 [14]: 17.8 µM (active); IC50 (Hexokinase): 2.26 µM (active)
